Results: patent US7504382B2 (priority 2003, dated 2009)
Values after ≈ are worked out from the molar mass of the structure shown. Square brackets hold non-standard residues; d marks the D form. Peptide text beside a SMILES is read from it. * marks the point of attachment. ξ: configuration not given here. ξE = NC(CCC(=O)O)C(=O)O; Cbz = O=C(OCc1ccccc1)*; CH2F = FC*

Legend:
[1] = test system: SARS-CoV infected Vero-cells; type: cell-based; settings: concentration of 1 μM
[2] = test system: SARS-CoV infected Vero 76 cells; type: cell-based; settings: for EC50 (protection from virus-induced cell death): SARS-CoV infected Vero 76 cells, 72 h, neutral red; for SI value: from TC50 and EC50, indication of potential therapeutical index

Row | Compound | inhibition of the cytopathic effect (CPE) of SARS-CoV [1] | toxicity at the same concentration (Vero-cells) | EC50 (protection from virus-induced cell death) [2] | SI value [2] | TC50 (toxicity of the compound) (uninfected Vero 76 cells)
1 | CNC(=O)CCC(NC(=O)[C@H](CC(C)C)NC(=O)OCc1ccccc1)C(=O)CF (stereo partly drawn) [Example 12, 4-(Cbz-Leu-Amido)-6-Fluoro-5-Oxo-Hexanoic Acid Methylamide] (Cbz-Leu-[ξE](NHMe)-CH2F) | 100% | no toxicity was observed | – | – | –
2 | CC(C)[C@H](NC(=O)OCc1ccccc1)C(=O)NC(CCC(=O)N(C)C)C(=O)CF (stereo partly drawn) [Example 24, 4-(Cbz-Val-Amido)-6-Fluoro-5-Oxo-Hexanoic Acid Dimethylamide] (Cbz-Val-[ξE](NMe2)-CH2F) | 100% | no toxicity was observed | 0.02 µg/mL (≈ 0.0472 µM) | > 500 | > 10 µg/mL
3 | CC(C)CC(NC(=O)C(NC(=O)OCc1ccccc1)C(C)C)C(=O)NC(CCC(=O)N(C)C)C(=O)CF (stereo not drawn) [Example 7, 4-(Cbz-Val-Leu-Amido)-6-Fluoro-5-Oxo-Hexanoic Acid Dimethylamide] (Cbz-Val-Leu-Glu(NMe2)-CH2F; configuration not given here) | 94.5% | no toxicity was observed | – | – | –
4 | CC(C)[C@H](NC(=O)OCc1ccccc1)C(=O)NC(CC(=O)N(C)C)C(=O)CF (stereo partly drawn) [Example 17, 3-(Cbz-Val-Amido)-5-Fluoro-4-Oxo-Pentanoic Acid Dimethylamide] | – | – | 2.1 µg/mL (≈ 5.13 µM) | > 24 | > 50 µg/mL
